Laboratory results published in article PMC5513037, “Examining the influence of specificity ligands and ATP-competitive ligands on the overall effectiveness of bivalent kinase inhibitors” (Proteome Science, 2017).

How the values were obtained:
Test in all cases: KAM-matrix competition in K562 lysate;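 on 0.001 uM KAM: median log10 fold change of treatment over DMSO control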;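 on 0.01 uM KAM: median log10 fold change of treatment over DMSO control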;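 on 0.1 uM KAM: median log10 fold change of treatment over DMSO control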;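 on 1 uM KAM: median log10 fold change of treatment over DMSO control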;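 on 10 uM KAM: median log10 fold change of treatment over DMSO control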
Assay type in all cases: binding
[1] = molecular target: T1, ADCK1 (Homo sapiens, UniProt Q86TW2);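 on 0.001 uM KAM: median log10 fold change of treatment over DMSO control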;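 on 0.01 uM KAM: median log10 fold change of treatment over DMSO control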;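 on 0.1 uM KAM: median log10 fold change of treatment over DMSO control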;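 on 1 uM KAM: median log10 fold change of treatment over DMSO control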;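 on 10 uM KAM: median log10 fold change of treatment over DMSO control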
T1 construct: endogenous in cells; host or cells: K562
T1 sequence (Q86TW2 1-530): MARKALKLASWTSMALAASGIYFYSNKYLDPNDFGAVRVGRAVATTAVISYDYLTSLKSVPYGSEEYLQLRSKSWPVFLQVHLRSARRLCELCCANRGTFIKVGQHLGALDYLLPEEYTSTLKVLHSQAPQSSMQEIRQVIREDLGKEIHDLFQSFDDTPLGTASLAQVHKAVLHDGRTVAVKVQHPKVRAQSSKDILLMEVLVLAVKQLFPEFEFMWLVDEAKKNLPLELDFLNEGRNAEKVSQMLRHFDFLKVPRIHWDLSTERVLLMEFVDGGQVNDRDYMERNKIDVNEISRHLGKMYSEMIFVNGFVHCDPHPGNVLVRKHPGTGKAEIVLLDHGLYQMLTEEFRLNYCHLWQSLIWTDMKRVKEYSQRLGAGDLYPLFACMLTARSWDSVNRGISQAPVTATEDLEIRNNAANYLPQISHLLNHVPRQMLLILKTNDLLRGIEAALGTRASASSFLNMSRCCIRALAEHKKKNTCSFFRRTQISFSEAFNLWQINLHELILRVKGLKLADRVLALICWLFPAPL
Experimental: (§1) Supplement 12953_2017_125_MOESM1_ESM.zip/MS_Supp Info.xlsx, sheet "KAM" | column: 10 uM KAM; 1 uM KAM; 0.1 uM KAM; 0.01 uM KAM; 0.001 uM KAM; RB50

[2] = molecular target: T2, IRAK1 (Homo sapiens, UniProt P51617);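 on 0.001 uM KAM: median log10 fold change of treatment over DMSO control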;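 on 0.01 uM KAM: median log10 fold change of treatment over DMSO control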;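 on 0.1 uM KAM: median log10 fold change of treatment over DMSO control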;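 on 1 uM KAM: median log10 fold change of treatment over DMSO control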;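 on 10 uM KAM: median log10 fold change of treatment over DMSO control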
T2 construct: endogenous in cells; host or cells: K562
Experimental: as §1

[3] = molecular target: T3, MAP3K9 (Homo sapiens, UniProt P80192)
T3 construct: endogenous in cells; host or cells: K562
Experimental: as §1

[4] = molecular target: T4, MAPK8 (Homo sapiens, UniProt P45983)
T4 construct: endogenous in cells; host or cells: K562
Experimental: as §1

[5] = molecular target: T5, PRKCQ (Homo sapiens, UniProt Q04759)
T5 construct: endogenous in cells; host or cells: K562
Experimental: as §1

[6] = molecular target: T6, SRPK1 (Homo sapiens, UniProt Q96SB4);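 on 0.001 uM KAM: median log10 fold change of treatment over DMSO control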;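 on 0.01 uM KAM: median log10 fold change of treatment over DMSO control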;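 on 0.1 uM KAM: median log10 fold change of treatment over DMSO control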;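 on 1 uM KAM: median log10 fold change of treatment over DMSO control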;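 on 10 uM KAM: median log10 fold change of treatment over DMSO control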
T6 construct: endogenous in cells; host or cells: K562
Experimental: as §1

[7] = molecular target: T7, TNK1 (Homo sapiens, UniProt Q13470)
T7 construct: endogenous in cells; host or cells: K562
T7 sequence (Q13470 1-666): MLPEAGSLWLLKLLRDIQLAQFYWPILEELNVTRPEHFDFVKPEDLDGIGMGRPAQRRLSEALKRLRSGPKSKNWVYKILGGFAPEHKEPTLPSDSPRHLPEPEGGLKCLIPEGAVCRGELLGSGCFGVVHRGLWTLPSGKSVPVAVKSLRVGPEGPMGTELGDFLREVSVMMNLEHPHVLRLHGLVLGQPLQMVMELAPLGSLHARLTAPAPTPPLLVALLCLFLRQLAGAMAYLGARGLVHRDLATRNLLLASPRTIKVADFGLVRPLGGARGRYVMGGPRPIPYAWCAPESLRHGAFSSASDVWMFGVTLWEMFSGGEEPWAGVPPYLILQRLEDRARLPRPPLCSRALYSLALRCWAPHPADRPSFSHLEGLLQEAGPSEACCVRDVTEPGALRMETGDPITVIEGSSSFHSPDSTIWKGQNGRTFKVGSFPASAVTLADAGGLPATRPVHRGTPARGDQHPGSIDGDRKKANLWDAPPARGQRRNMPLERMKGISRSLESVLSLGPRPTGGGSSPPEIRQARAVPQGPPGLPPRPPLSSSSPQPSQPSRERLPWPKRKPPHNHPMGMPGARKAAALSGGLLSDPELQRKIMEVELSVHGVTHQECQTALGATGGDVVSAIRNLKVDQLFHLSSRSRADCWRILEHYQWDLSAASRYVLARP
Experimental: as §1

[8] = molecular target: T8, TRIM28 (Homo sapiens, UniProt Q13263);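 on 0.001 uM KAM: median log10 fold change of treatment over DMSO control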;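 on 0.01 uM KAM: median log10 fold change of treatment over DMSO control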;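 on 0.1 uM KAM: median log10 fold change of treatment over DMSO control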;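 on 1 uM KAM: median log10 fold change of treatment over DMSO control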;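 on 10 uM KAM: median log10 fold change of treatment over DMSO control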
T8 construct: endogenous in cells; host or cells: K562
Experimental: as §1

[9] = molecular target: T9, WNK1 (Homo sapiens, UniProt Q9H4A3);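 on 0.001 uM KAM: median log10 fold change of treatment over DMSO control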;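 on 0.01 uM KAM: median log10 fold change of treatment over DMSO control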;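 on 0.1 uM KAM: median log10 fold change of treatment over DMSO control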;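 on 1 uM KAM: median log10 fold change of treatment over DMSO control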;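 on 10 uM KAM: median log10 fold change of treatment over DMSO control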
T9 construct: endogenous in cells; host or cells: K562
Experimental: as §1

[10] = KAM 0.001-10 uM, read-out: RB50 (the source's name)
[11] = read-out: RB50 (the source's name)

T6 sequence (Q96SB4 whole entry): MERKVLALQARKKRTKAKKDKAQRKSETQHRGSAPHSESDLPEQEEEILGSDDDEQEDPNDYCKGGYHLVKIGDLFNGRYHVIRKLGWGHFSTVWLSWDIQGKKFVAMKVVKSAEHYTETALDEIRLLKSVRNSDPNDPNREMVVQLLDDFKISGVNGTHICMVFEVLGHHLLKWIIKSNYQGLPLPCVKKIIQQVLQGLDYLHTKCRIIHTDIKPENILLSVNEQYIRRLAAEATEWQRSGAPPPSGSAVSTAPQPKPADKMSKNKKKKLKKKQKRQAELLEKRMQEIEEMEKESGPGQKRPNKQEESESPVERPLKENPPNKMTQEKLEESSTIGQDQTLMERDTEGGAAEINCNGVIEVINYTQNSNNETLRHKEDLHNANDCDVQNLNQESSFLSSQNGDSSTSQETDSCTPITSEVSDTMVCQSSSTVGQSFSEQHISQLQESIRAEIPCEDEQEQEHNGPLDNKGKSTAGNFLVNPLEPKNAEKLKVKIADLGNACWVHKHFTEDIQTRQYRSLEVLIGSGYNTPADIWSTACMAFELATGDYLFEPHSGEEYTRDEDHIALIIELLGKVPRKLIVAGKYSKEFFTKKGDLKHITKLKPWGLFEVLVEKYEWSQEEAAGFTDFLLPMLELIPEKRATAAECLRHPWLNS
T3 sequence (P80192 whole entry): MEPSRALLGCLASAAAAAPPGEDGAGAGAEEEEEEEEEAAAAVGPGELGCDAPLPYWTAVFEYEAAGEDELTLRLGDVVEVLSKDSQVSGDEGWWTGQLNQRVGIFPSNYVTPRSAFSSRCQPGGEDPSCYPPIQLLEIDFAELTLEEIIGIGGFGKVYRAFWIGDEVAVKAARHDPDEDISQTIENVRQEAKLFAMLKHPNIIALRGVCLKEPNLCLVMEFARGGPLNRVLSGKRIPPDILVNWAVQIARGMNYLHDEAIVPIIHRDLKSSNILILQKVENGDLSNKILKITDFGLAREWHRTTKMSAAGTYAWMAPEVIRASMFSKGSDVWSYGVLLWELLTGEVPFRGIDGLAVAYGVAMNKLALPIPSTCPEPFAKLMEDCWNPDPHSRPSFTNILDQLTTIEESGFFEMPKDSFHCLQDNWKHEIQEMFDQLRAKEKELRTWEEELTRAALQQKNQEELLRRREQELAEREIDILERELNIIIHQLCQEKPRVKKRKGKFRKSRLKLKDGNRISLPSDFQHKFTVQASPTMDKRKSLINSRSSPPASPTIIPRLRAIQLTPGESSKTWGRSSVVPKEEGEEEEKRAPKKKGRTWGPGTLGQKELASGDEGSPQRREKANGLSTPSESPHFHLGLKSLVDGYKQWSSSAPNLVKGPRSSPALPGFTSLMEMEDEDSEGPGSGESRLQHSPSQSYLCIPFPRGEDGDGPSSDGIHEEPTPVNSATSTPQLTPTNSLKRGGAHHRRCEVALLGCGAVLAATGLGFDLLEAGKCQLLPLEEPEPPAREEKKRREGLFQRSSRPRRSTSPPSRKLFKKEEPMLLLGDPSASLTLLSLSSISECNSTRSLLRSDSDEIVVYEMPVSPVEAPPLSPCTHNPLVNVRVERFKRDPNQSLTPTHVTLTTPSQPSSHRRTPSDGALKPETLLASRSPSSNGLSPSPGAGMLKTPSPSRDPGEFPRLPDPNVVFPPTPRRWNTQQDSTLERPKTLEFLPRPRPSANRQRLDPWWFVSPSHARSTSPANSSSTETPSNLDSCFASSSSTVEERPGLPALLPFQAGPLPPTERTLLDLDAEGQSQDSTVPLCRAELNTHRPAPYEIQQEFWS
T9 sequence (Q9H4A3 whole entry): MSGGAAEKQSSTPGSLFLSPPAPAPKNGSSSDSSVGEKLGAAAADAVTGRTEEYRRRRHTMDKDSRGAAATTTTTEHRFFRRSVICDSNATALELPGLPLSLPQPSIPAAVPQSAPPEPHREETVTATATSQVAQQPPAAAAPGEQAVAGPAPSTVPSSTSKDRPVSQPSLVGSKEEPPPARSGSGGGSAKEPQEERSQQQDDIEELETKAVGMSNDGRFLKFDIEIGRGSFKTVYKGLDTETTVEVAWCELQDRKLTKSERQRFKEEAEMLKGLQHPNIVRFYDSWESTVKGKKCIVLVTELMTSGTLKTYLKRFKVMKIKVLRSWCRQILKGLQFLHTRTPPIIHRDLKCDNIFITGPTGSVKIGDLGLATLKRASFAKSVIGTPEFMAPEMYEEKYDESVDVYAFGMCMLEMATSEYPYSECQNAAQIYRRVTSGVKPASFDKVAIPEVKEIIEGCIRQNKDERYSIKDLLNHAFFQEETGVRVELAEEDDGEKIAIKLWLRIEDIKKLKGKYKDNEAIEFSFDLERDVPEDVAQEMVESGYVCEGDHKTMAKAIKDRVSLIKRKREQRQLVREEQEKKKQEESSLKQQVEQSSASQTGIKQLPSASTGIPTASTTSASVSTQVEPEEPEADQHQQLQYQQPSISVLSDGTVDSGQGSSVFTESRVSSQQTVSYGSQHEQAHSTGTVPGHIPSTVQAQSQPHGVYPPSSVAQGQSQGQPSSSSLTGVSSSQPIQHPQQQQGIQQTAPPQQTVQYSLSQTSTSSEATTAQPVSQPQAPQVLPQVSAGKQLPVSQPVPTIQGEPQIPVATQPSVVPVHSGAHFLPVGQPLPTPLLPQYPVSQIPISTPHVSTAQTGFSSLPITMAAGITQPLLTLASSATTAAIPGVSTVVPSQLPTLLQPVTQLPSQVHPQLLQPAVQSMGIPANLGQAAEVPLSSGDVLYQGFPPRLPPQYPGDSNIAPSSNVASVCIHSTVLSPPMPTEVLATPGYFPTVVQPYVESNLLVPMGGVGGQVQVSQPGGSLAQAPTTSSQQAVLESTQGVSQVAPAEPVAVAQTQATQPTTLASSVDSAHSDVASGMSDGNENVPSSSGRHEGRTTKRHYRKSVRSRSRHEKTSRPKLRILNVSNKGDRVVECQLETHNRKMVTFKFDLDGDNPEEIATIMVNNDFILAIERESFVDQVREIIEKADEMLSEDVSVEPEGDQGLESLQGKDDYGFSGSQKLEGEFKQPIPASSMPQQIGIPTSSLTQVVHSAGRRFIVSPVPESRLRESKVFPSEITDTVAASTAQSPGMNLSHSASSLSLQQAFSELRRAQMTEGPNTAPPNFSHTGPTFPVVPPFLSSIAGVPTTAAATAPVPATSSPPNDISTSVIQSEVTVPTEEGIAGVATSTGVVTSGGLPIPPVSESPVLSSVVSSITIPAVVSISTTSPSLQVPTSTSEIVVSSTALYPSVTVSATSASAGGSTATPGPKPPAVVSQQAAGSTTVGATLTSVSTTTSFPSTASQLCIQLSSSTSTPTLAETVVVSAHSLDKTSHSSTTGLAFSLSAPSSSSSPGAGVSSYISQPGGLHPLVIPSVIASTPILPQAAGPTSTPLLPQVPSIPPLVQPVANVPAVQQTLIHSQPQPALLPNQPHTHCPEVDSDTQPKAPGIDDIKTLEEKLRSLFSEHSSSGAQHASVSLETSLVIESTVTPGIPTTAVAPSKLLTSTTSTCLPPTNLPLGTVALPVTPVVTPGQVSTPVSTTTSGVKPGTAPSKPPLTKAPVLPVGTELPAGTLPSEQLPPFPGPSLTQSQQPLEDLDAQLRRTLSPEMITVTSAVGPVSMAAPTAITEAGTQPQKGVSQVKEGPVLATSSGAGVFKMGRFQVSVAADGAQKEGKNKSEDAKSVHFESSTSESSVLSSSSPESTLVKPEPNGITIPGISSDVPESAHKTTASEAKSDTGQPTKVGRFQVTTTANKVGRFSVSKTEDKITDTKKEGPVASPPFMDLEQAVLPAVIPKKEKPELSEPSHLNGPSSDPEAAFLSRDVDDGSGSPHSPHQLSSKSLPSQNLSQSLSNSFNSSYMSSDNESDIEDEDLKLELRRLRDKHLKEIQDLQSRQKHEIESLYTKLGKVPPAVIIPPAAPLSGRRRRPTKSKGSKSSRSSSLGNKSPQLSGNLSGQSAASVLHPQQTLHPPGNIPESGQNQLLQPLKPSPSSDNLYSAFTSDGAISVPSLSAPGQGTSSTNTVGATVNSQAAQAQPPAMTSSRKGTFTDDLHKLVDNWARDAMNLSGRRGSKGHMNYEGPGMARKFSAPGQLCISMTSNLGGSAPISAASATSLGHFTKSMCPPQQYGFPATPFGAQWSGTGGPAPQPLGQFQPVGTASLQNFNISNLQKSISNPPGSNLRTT
T5 sequence (Q04759 whole entry): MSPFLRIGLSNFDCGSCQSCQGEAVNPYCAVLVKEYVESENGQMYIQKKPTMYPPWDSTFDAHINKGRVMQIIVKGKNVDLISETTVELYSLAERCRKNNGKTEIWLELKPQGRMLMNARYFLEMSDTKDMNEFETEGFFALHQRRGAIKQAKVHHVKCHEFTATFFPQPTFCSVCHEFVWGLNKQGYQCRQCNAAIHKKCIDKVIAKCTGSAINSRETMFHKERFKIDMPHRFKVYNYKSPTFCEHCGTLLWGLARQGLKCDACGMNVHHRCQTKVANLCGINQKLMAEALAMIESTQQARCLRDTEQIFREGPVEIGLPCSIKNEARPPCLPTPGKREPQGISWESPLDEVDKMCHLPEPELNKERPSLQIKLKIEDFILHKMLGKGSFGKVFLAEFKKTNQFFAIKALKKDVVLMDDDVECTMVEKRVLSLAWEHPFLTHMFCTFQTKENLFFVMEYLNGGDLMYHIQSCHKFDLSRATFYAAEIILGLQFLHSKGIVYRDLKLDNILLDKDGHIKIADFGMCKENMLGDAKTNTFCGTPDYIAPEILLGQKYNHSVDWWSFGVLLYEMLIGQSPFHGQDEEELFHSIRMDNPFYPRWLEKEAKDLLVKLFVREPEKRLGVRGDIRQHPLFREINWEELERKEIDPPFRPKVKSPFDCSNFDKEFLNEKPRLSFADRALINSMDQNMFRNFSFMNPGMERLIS

N#CCc1ccc(Nc2nc(NCCCN)cc(Nc3cc(C4CC4)[nH]n3)n2)cc1 [KAM]
IC50 [1, 10]: > 10 µM | 0.001 uM KAM ([1]; relative to 0 uM KAM = 0): -0.001358 | 0.01 uM KAM ([1]; relative to 0 uM KAM = 0): -0.0336 | 0.1 uM KAM ([1]; relative to 0 uM KAM = 0): -0.06203 | 1 uM KAM ([1]; relative to 0 uM KAM = 0): -0.1949 | 10 uM KAM ([1]; relative to 0 uM KAM = 0): -0.2595 | IC50 [2, 10]: 6.03 µM | 0.001 uM KAM ([2]; relative to 0 uM KAM = 0): -0.01461 | 0.01 uM KAM ([2]; relative to 0 uM KAM = 0): -0.006177 | 0.1 uM KAM ([2]; relative to 0 uM KAM = 0): -0.1059 | 1 uM KAM ([2]; relative to 0 uM KAM = 0): -0.1722 | 10 uM KAM ([2]; relative to 0 uM KAM = 0): -0.3131 | median Log10 fold change ([3]; 0.001 uM KAM): -0.03702 | median Log10 fold change ([3]; 0.01 uM KAM): 0.03625 | median Log10 fold change ([3]; 0.1 uM KAM): -0.05744 | median Log10 fold change ([3]; 1 uM KAM): -0.2576 | median Log10 fold change ([3]; 10 uM KAM): -0.4734 | IC50 [3, 11]: 1.8 µM | median Log10 fold change ([4]; 0.001 uM KAM): -0.03388 | median Log10 fold change ([4]; 0.01 uM KAM): -0.03516 | median Log10 fold change ([4]; 0.1 uM KAM): -0.1302 | median Log10 fold change ([4]; 1 uM KAM): -0.2377 | median Log10 fold change ([4]; 10 uM KAM): -0.3812 | IC50 [4, 11]: 2.35 µM | median Log10 fold change ([5]; 0.001 uM KAM): -0.05924 | median Log10 fold change ([5]; 0.01 uM KAM): -0.02167 | median Log10 fold change ([5]; 0.1 uM KAM): -0.1204 | median Log10 fold change ([5]; 1 uM KAM): -0.1965 | median Log10 fold change ([5]; 10 uM KAM): -0.3734 | IC50 [5, 11]: 3.6 µM | IC50 [6, 10]: > 10 µM | 0.001 uM KAM ([6]; relative to 0 uM KAM = 0): -0.01052 | 0.01 uM KAM ([6]; relative to 0 uM KAM = 0): -0.04054 | 0.1 uM KAM ([6]; relative to 0 uM KAM = 0): 0.02779 | 1 uM KAM ([6]; relative to 0 uM KAM = 0): -0.002878 | 10 uM KAM ([6]; relative to 0 uM KAM = 0): -0.01305 | median Log10 fold change ([7]; 0.001 uM KAM): -0.003814 | median Log10 fold change ([7]; 0.01 uM KAM): -0.02527 | median Log10 fold change ([7]; 0.1 uM KAM): -0.2865 | median Log10 fold change ([7]; 1 uM KAM): -0.4389 | median Log10 fold change ([7]; 10 uM KAM): -0.4693 | IC50 [7, 11]: 0.199 µM | IC50 [8, 10]: > 10 µM | 0.001 uM KAM ([8]; relative to 0 uM KAM = 0): 0.05535 | 0.01 uM KAM ([8]; relative to 0 uM KAM = 0): 0.00293 | 0.1 uM KAM ([8]; relative to 0 uM KAM = 0): 0.1066 | 1 uM KAM ([8]; relative to 0 uM KAM = 0): 0.08268 | 10 uM KAM ([8]; relative to 0 uM KAM = 0): 0.08032 | IC50 [9, 10]: > 10 µM | 0.001 uM KAM ([9]; relative to 0 uM KAM = 0): -0.03013 | 0.01 uM KAM ([9]; relative to 0 uM KAM = 0): -0.03259 | 0.1 uM KAM ([9]; relative to 0 uM KAM = 0): -0.03066 | 1 uM KAM ([9]; relative to 0 uM KAM = 0): 0.00603 | 10 uM KAM ([9]; relative to 0 uM KAM = 0): -0.05865
